# Results published in patent US20180303776A1, “LIPOSOMAL REHYDRATION SALT FORMULATION FOR TREATMENT OF ALCOHOL RELATED DISORDERS” (EINSOF BIOHEALTH LIMITED, priority 2017, published 2018).
# Assays:
# MD2 = MD2 protein expression in frontal cortex after ethanol intoxication; format: in vivo, rats; conditions: OEA pretreatment
# Description: (§1) There now follows examples of treatment of ethanol intoxication and using OEA as Example 10. Rats received an initial dose of 5 g/kg of 30% (w/v) ethanol via oral probe and a maximum of 3 g/kg of ethanol in subsequent doses every 8 hours. Blood was collected from the tail vein 2 hours before and 2 hours after 15:00 hours of ethanol administration by gavage on days 2 to 4 in order to determine blood ethanol levels (BEL), and treated of keeping toxic ethanol doses BEL relatively constant (see the table below). Mean ethanol/rat doses were 8 g/kg, 7.5 g/kg, 7.9 g/kg and 4.9 g/kg, day 1 to 4, respectively, and the mean ethanol/rat/day (1-4) was 7.06 g/kg. In a first experiment, the time-course of the neuro-inflammation was verified after 1 hour, 6 hours and 24 hours from the last feeding forced with ethanol. […]
# (§2) HMGB1 is a dangerous cytokine recruited by alcohol that activates the MyD88-dependent TLR4 immune signaling pathway, inducing the translocation of the p65 subunit of NF-kB to the nucleus and increasing its transcriptional activity. […] Lipid peroxidation, measured by the accumulation of 4-HNE, induces a redox cell state related to activation of caspase 3 and cell death by caspase-mediated apoptosis 8. […]
# (§3) The western blot analysis was studied. […] Autoradiography was quantified by densitometry (NIH ImageJ® software, National Biosciences, Lincoln, Nebr. USA) and expressed as optical density (O.D.). […]
# MyD88 = MyD88 protein expression in frontal cortex after ethanol intoxication; format: in vivo, rats; conditions: OEA pretreatment
# Description: as §1, §2, §3
# p65 subunit of NF-kB = test: NF-κB p65 expression and transcription factor activity in frontal cortex; format: in vivo, rats
# Description: as §1, with “g/kg.” for “g/kg. In a first experiment, the time-course of the neuro-inflammation was verified after 1 hour, 6 hours and 24 hours from the last feeding forced with ethanol.”
# as §2
# Real-time Polymerase Chain Reaction Analysis (RT-PCR) were studied. […] Quantitative changes in mRNA levels were estimated by RT-PCR, carried out in the presence of the SYBR green probe using a […] reaction in a Rotor-Gene (Corbett Research®, Mortlake, NSW, Australia). […]
# IκBα = IκBα mRNA and protein expression in frontal cortex; format: in vivo, rats; conditions: OEA pretreatment
# Description: as §1, §2, §3
# HMGB1 = HMGB1 expression in frontal cortex after ethanol intoxication; format: in vivo, rats
# Description: as §1, §2, §3
# IL-1β = IL-1β in frontal cortex and plasma after ethanol intoxication; format: in vivo, rats; conditions: OEA pretreatment
# Description: as §1, with “ethanol. In the second experiment, OEA (5 mg/kg, ip, 10 mg/kg loading dose) was injected as pretreatment 10 min before each ethanol forced feed, and brain/blood tissue samples were collected 2-4 hours after the last administration of ethanol.” for “ethanol.”
# as §2
# (§4) Real-time Polymerase Chain Reaction Analysis (RT-PCR) were studied. […] Quantitative changes in mRNA levels were estimated by RT-PCR, carried out in the presence of the SYBR green probe using a […] reaction in a Rotor-Gene (Corbett Research®, Mortlake, NSW, Australia).
# (§5) Levels of HMGB1, pro-inflammatory cytokines (TNF-α, IL-1β) and chemokines MCP-1 were studied. Levels of HMGB1, TNF-α, IL-1β and soluble MCP-1 were determined by Enzyme-linked immunosorbent assay (ELISA) 30 (Elabscience Biotechnology Co., Ltd., China, for HMGB-1; RayBiotech®, GA, USA, for the TNF-α, IL-1β and MCP-1). The nuclear/cytosolic HMGB1 fraction was determined by Western blot analysis.
# caspase-8 = test: Caspase-8 mRNA expression in frontal cortex; format: in vivo, rats; conditions: OEA pretreatment
# Description: as §1, with “g/kg.” for “g/kg. In a first experiment, the time-course of the neuro-inflammation was verified after 1 hour, 6 hours and 24 hours from the last feeding forced with ethanol.”
# as §2, §4
# MCP-1 = MCP-1 levels in frontal cortex after ethanol intoxication; format: in vivo, rats; conditions: OEA pretreatment
# Description: as §1, with “g/kg.” for “g/kg. In a first experiment, the time-course of the neuro-inflammation was verified after 1 hour, 6 hours and 24 hours from the last feeding forced with ethanol.”
# as §2
# as §5, with “The nuclear/cytosolic HMGB1 fraction was determined by Western blot analysis.” left out
# TNF-α = TNF-α in frontal cortex and plasma after ethanol intoxication; format: in vivo, rats; conditions: OEA pretreatment
# Description: as §1, with “ethanol. In the second experiment, OEA (5 mg/kg, ip, 10 mg/kg loading dose) was injected as pretreatment 10 min before each ethanol forced feed, and brain/blood tissue samples were collected 2-4 hours after the last administration of ethanol.” for “ethanol.”
# as §2, §4, §5
# TLR4 = TLR4 mRNA and protein expression in frontal cortex after ethanol intoxication; format: in vivo, rats; conditions: OEA pretreatment
# Description: as §1, §2, §3
# iNOS = iNOS mRNA expression in frontal cortex; format: in vivo, rats; conditions: OEA pretreatment
# Description: as §1, with “g/kg.” for “g/kg. In a first experiment, the time-course of the neuro-inflammation was verified after 1 hour, 6 hours and 24 hours from the last feeding forced with ethanol.”
# as §2, §4
# corticosterone = test: Plasma corticosterone levels; format: in vivo, rats
# Description: (§6) There now follows examples of treatment of ethanol intoxication and using OEA as Example 10. Rats received an initial dose of 5 g/kg of 30% (w/v) ethanol via oral probe and a maximum of 3 g/kg of ethanol in subsequent doses every 8 hours. Blood was collected from the tail vein 2 hours before and 2 hours after 15:00 hours of ethanol administration by gavage on days 2 to 4 in order to determine blood ethanol levels (BEL), and treated of keeping toxic ethanol doses BEL relatively constant (see the table below). Mean ethanol/rat doses were 8 g/kg, 7.5 g/kg, 7.9 g/kg and 4.9 g/kg, day 1 to 4, respectively, and the mean ethanol/rat/day (1-4) was 7.06 g/kg. In a first experiment, the time-course of the neuro-inflammation was verified after 1 hour, 6 hours and 24 hours from the last feeding forced with ethanol. In the second experiment, OEA (5 mg/kg, ip, 10 mg/kg loading dose) was injected as pretreatment 10 min before each ethanol forced feed, and brain/blood tissue samples were collected 2-4 hours after the last administration of ethanol.
# (§7) Experimental design, drug administration and tissue/plasma collection are now discussed. […]
# (§8) Plasma levels of corticosterone and LPS were studied. Corticosterone and LPS were measured in plasma using commercially available kits by radioimmunOEAsay (RIA) (Coat-A-Count®, Siemens, La., USA) or colorimetric enzyme reaction (HyCult Biotech, Uden, respectively).
# caspase-3 = test: Caspase-3 expression and activity in frontal cortex; format: in vivo, rats; conditions: OEA pretreatment
# Description: as §6, with “of ethanol. […]” for “of ethanol.”
# as §2, §3, §4
# Measurement of caspase-3 activity was studied. Caspase-3 activity was determined using a fluorometric assay kit (Abnova®, Taiwan) according to the manufacturer's protocol. […]
# [1] = tested on: rats exposed to ethanol intoxication; test: Elevated cross maze test during ethanol abstinence; format: in vivo
# Description: Tests were conducted to determine the effects of repeated OEA administration on depressive and anxiety behavior during early ethanol abstinence. Animals were tested in the cross-raised labyrinth 24 hours and 12 days after the alcohol abuse protocol and forced swimming test was performed 48 hours after the last administration of ethanol. [HMGB1 (High Mobility Group Box 1): high mobility group 1 box; TLR4 (Toll-Like Receptors 4): Receptors type Toll 4: MD2 (Myeloid Differentiation Protein 2): myeloid differentiation protein 2; MyD88 (Myeloid Differentiation Factor 88): myeloid differentiation factor 88; NF-kB (Nuclear Farctor kB): nuclear transcription factor kappa B (p65 subunit); IkB: inhibitory protein IkappaB; TNF-α (Tumor Necrosis Factor α): tumor necrosis factor alpha; IL-1β (Interleukin β): 1interleukin-1 beta; MCP-1 (Monocyte Chemoattractant Protein 1): monocyte chemotactic protein 1; INOS (inducible Nitric Oxide Synthase): inducible nitric oxide synthase; COX-2 (Cyclooxygenase 2): cyclooxygenase 2; 4-HNE (4-hydroxynonenal): 4-hydroxynonenal]. […] The forced swimming test was performed on the rats two days after the last forced feed with ethanol and the specific behaviors were recorded with a digital video camera for 5 minutes. […]
# LPS = test: Plasma LPS levels (intestinal permeability to endotoxins); format: in vivo, rats; conditions: pretreated with OEA and receiving ethanol; ethanol alone approximately 80%
# Description: as §6, §7, §8
# COX-2 = COX-2 mRNA expression in frontal cortex; format: in vivo, rats; conditions: 2-4 hours after last ethanol administration, OEA pretreatment
# Description: as §1, with “g/kg.” for “g/kg. In a first experiment, the time-course of the neuro-inflammation was verified after 1 hour, 6 hours and 24 hours from the last feeding forced with ethanol.”
# as §2, §4
# [2] = tested on: rats exposed to ethanol intoxication; test: Forced swimming test during early ethanol abstinence; format: in vivo; conditions: forced swimming test 48 hours after last ethanol administration; OEA pretreatment
# Description: Tests were conducted to determine the effects of repeated OEA administration on depressive and anxiety behavior during early ethanol abstinence. Animals were tested in the cross-raised labyrinth 24 hours and 12 days after the alcohol abuse protocol and forced swimming test was performed 48 hours after the last administration of ethanol. [HMGB1 (High Mobility Group Box 1): high mobility group 1 box; TLR4 (Toll-Like Receptors 4): Receptors type Toll 4: MD2 (Myeloid Differentiation Protein 2): myeloid differentiation protein 2; MyD88 (Myeloid Differentiation Factor 88): myeloid differentiation factor 88; NF-kB (Nuclear Farctor kB): nuclear transcription factor kappa B (p65 subunit); IkB: inhibitory protein IkappaB; TNF-α (Tumor Necrosis Factor α): tumor necrosis factor alpha; IL-1β (Interleukin β): 1interleukin-1 beta; MCP-1 (Monocyte Chemoattractant Protein 1): monocyte chemotactic protein 1; INOS (inducible Nitric Oxide Synthase): inducible nitric oxide synthase; COX-2 (Cyclooxygenase 2): cyclooxygenase 2; 4-HNE (4-hydroxynonenal): 4-hydroxynonenal]. In this third experiment (n=25), the treatment with ethanol intoxication and OEA pretreatment applied in experiment 2 was repeated, and the animals were submitted to the maze test in a high cross 24 hours and 12 days after the last forced ethanol administration and the forced swimming test 48 hours after the ethanol intoxication protocol. Behavioral tests were studied. The forced swimming test was performed on the rats two days after the last forced feed with ethanol and the specific behaviors were recorded with a digital video camera for 5 minutes. These same rats were also tested by the high cross maze test equipped with infrared light (Panlab, Barcelona, Spain) 1 and 12 days after the last forced feed with ethanol, allowing the animals to freely explore the labyrinth during 5 minutes. Tests were performed 3 hours after onset of the dark phase.
# 4-HNE = test: Lipid peroxidation (HNE adduct formation) in frontal cortex; format: in vivo, rats; conditions: significant only in the animals treated with ethanol
# Description: as §1, with “g/kg.” for “g/kg. In a first experiment, the time-course of the neuro-inflammation was verified after 1 hour, 6 hours and 24 hours from the last feeding forced with ethanol.”
# as §2
# Lipid peroxidation was studied. […] Levels of HNE protein adducts in cerebral cortex lysates were measured using a competitive 96-well OxySelect™ adduct HNE ELISA Kit (Cell Biolabs®, San Diego, Calif., US).
structure (smiles),measurement,setting,value
"CCCCCCCC/C=C\CCCCCCCC(=O)NCCO [OEA, oleoylethanolamide]",increase in MD2 protein induced by ethanol,MD2,inhibited the increase
same,increase in ethanol-induced MyD88 protein expression,MyD88,inhibited the increase
same,increase in nuclear activity of p65 induced by ethanol,"p65 subunit of NF-kB; frontal cortex nuclear extracts, OEA pretreatment",counteracted
same,increase in p65 mRNA levels induced by ethanol,"p65 subunit of NF-kB; frontal cortex, OEA pre-administration",partially prevented
same,increase in IκBα mRNA levels induced by ethanol,IκBα,did not counteract
same,increase in IκBα protein expression induced by ethanol,IκBα,did not counteract
same,increase in HMGB1 induced by ethanol intoxication,HMGB1; OEA 5 mg/kg ip 10 min before each ethanol dose,prevented
same,nuclear/cytoplasmic HMGB1 ratio,HMGB1; OEA pretreatment + ethanol,1.48
same,ethanol-induced increase in IL-1β protein levels,IL-1β; frontal cortex,prevented
same,ethanol-induced increase of IL-1β mRNA expression,IL-1β; frontal cortex,did not prevent this effect
same,ethanol-induced increase of IL-1β,IL-1β; plasma,prevented
same,ethanol-induced overexpression of caspase-8 mRNA,caspase-8,reversed this effect
same,ethanol-induced increase of MCP-1 levels,MCP-1,prevented this effect
same,ethanol-induced increase of TNF-α mRNA expression,TNF-α; frontal cortex,did not prevent this effect
same,ethanol-induced increase of TNF-α protein levels,TNF-α; frontal cortex,not avoided
same,ethanol-induced increase of TNF-α,TNF-α; plasma,partially prevented
same,ethanol-induced overexpression of TLR4 mRNA,TLR4,able to reduce the overexpression
same,ethanol-induced overexpression of TLR4 protein,TLR4,able to reduce the overexpression
same,ethanol-induced increase in the expression of iNOS mRNA,iNOS,completely prevented
same,ethanol-induced increase in plasma corticosterone levels,"corticosterone; animals exposed to ethanol intoxication, OEA pretreatment",completely prevented
same,plasma corticosterone levels,corticosterone; control animals,did not modify
same,alcohol-induced overexpression of caspase-3 mRNA,caspase-3,not able to prevent this effect
same,ethanol-induced increase in caspase-3 activity,caspase-3,reversed
same,ethanol-induced overexpression of caspase-3 protein,caspase-3,prevented
same,anxiety-type behavior: percentage of entries and time in the open arms,[1]; 24 hours after ethanol intoxication,"clear trend showing a clear anxiolytic effect of OEA in the animals treated with ethanol and control, the Dunn post hoc test found no significant effects in multiple comparisons"
same,anxiety-type behavior: percentage of entrances and time of permanence in the open arms,[1]; 12 days after ethanol intoxication,not significant
same,LPS plasma levels,LPS,44 % increase over control
same,COX-2 mRNA levels,COX-2,"reduced COX-2 mRNA levels with ethanol, but not in the animals treated with vehicle"
same,alcohol-induced depressive symptoms,[2],able to prevent alcohol-induced depressive symptoms
same,immobility,[2],normalizing
same,latency,[2],normalizing
same,swimming,[2],normalizing
same,HNE formation (lipid peroxidation),4-HNE,decreased the HNE formation
